Test results taken from publication PMC13039201 (Scientific Reports, 2026).
Where two headings read alike, the source gives them in different places.

Columns and labels:
anti-HA antibody = assay: SPR injection on the bare anti-HA sensor chip without any immobilized HA; assay type: binding, rabbits
[1] = biological target: HA captured from plasma (ACLF patients, CTRL) (Homo sapiens, UniProt P02768); assay type: binding; conditions: ACLF n = 6 vs CTRL n = 6, Student's t-test on KD values
[2] = biological target: Human serum albumin (HA), commercial HA (Homo sapiens, UniProt P02768)
Chain of Human serum albumin (HA), commercial HA (P02768 25-609): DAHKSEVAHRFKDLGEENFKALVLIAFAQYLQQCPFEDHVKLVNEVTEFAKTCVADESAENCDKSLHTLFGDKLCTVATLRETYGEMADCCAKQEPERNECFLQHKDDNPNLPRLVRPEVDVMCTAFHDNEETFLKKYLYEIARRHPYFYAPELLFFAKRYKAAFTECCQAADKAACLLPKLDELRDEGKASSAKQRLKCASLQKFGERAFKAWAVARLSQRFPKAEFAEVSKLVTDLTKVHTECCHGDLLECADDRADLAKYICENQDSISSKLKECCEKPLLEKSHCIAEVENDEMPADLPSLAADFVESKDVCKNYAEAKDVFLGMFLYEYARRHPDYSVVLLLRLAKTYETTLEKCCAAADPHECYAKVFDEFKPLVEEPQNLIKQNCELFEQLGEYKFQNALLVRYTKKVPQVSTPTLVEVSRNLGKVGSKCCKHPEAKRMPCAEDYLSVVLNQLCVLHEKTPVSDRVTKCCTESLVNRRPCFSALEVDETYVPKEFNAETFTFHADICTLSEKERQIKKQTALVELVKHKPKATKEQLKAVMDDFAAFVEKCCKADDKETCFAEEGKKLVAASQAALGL

HA = conditions: read-out: KD reported in the literature; cited from earlier work
[3] = biological target: HA captured from plasma (T2DM-DKD, T2DM+DKD) (Homo sapiens, UniProt P02768); assay type: binding; conditions: n = 10 each, KD values
Chain of HA captured from plasma (T2DM-DKD, T2DM+DKD) (P02768 25-609): as above

Chain of HA captured from plasma (ACLF patients, CTRL) (P02768 25-609): as above

affinity of HA from ACLF patients compared with HA from CTRL subjects [1] | Compound | Kd (HA) | other results
no significant differences | C=CC1=C(C)/C(=C/C2=NC(=C\c3[nH]c(/C=C4\NC(=O)C(C)=C4C=C)c(C)c3CCC(=O)O)/C(CCC(=O)O)=C2C)NC1=O [BVD, biliverdin] |  | interactions with the anti-HA antibody (anti-HA antibody): significant interactions; Kd [2]: 13 ± 3 µM
 | CCCCC1C(=O)N(c2ccccc2)N(c2ccccc2)C1=O [PBZ, phenylbutazone] | 0.12 to 3.3 µM | 
 | COc1ccc2c3c1O[C@H]1C[C@@H](O)C=C[C@@]31CCN(C)C2 [galantamine] |  | interaction with HA (negative control) ([2]; 0.370-30.0 µM, 10 µL/min, 60 s): no interaction
reduced its binding affinity | teicoplanin |  | binding capacity of HA in T2DM + DKD patients compared with T2DM-DKD [3]: did not significantly affect

Compound | affinity of HA from ACLF patients compared with HA from CTRL subjects [1] | Kd (HA) | other results
CN(C)c1cccc2c(S(=O)(=O)N[C@@H](Cc3ccccc3)C(=O)O)cccc12 [DPA, dansyl-L-phenylalanine] | no significant differences | 6 µM | Kd ([2]; commercial HA captured on chip, steady state 1:1 model, 25 °C, validation): 1.7 ± 0.3 µM
